Laboratory results as given in patent US11046687B2, “Polycyclic amide compound, preparation process and use thereof” (HEBEI GRANDIOS PHARMA CO., LTD., priority 2018, dated 2021).

Experiments:
[1] = tested on: breast cancer cells (MDA); test: MTT assay, in vitro growth inhibition, MDA cells; assay type: cell-based; design: in vitro growth inhibition rate, MDA: unit not given here; settings: test drug concentration 4 μg/mL, 37° C., 3 days; for inhibition at 4 µg/mL: 72 h, read-out: in vitro growth inhibition rate, MDA
Experimental: (§1) The in vitro cytotoxicity of the compounds of the present invention was tested with reference to the experimental methods reported in the literature (Liu Yanqin et al., Organic Chemistry, 2002, 22(4), 279-282). The human oral epithelial cancer cells (KB), human lung cancer cells (A-549), and breast cancer cells (MDA) were used to test the in vitro growth inhibition rate of the compounds by MTT assay. Cells were cultured at 37° C. for 3 days under a test drug concentration of 4 μg/mL.

[2] = tested on: human lung cancer cells (A-549); test: MTT assay, in vitro growth inhibition, A-549 cells; assay type: cell-based; design: in vitro growth inhibition rate, A549: unit not given here; settings: test drug concentration 4 μg/mL, 37° C., 3 days; for inhibition at 4 µg/mL: Homo sapiens, A549, 72 h, read-out: in vitro growth inhibition rate, A549
Experimental: as §1

| Compound | in vitro growth inhibition rate, MDA [1] | in vitro growth inhibition rate, A549 [2] | inhibition at 4 µg/mL [1] | inhibition at 4 µg/mL [2] |
| --- | --- | --- | --- | --- |
| CNC(C)CNC(=O)c1cccc2cc3ccccc3nc12 (stereo not shown) [Compound 5] | −5.1 | −11 |  |  |
| CCNC(C)CNC(=O)c1cccc2cc3ccccc3nc12 (stereo not shown) [Compound 6] | −1.5 | −5 |  |  |
| CCN(C)C(C)CNC(=O)c1cccc2cc3ccccc3nc12 (stereo not shown) [Compound 7] | 4.4 | −5.8 |  |  |
| CCN(CC)C(C)CNC(=O)c1cccc2cc3ccccc3nc12 (stereo not shown) [Compound 8] | −4.7 | −6.6 |  |  |
| CC(C)N(C)C(C)CNC(=O)c1cccc2cc3ccccc3nc12 (stereo not shown) [Compound 10, N-[2-(N-isopropylmethylamino)propyl]acridine-4-carboxamide] |  |  | 1.2% | 3.3% |
| CCNCC(C)NC(=O)c1cccc2cc3ccccc3nc12 (stereo not shown) [Compound 22] | 2.5 | 3.1 |  |  |
| Cc1cccc2nc3cccc(C(=O)NCC(C)N(C)C(C)C)c3nc12 (stereo not shown) [Compound 50, N-[2-(N-isopropylmethylamino)propyl]-1-methylphenazine-9-carboxamide] |  |  | -7.2% | -7.8% |
| Cc1cccc2nc3cccc(C(=O)NC(C)CN(C)C(C)C)c3nc12 (stereo not shown) [Compound 66, N-[1-methyl-2-(N-isopropylmethylamino)ethyl]-1-methylphenazine-9-carboxamide] |  |  | 1.9% | 1.2% |
| CNCCNC(=O)c1cn(-c2ccc(F)cc2)c(=O)c2cc3cccc(C)c3nc12 [Compound 85] | −1.8 | −3.4 |  |  |
| CCN(C)CCNC(=O)c1cn(-c2ccc(F)cc2)c(=O)c2cc3cccc(C)c3nc12 [Compound 86] | 14 | 9.8 |  |  |
| CCNCCNC(=O)c1cn(C)c(=O)c2cc3cccc(C)c3nc12 [Compound 87] | 3.9 | 5 |  |  |
| CCN(C)CCNC(=O)c1cn(C)c(=O)c2cc3cccc(C)c3nc12 [Compound 88] | 1.4 | 1.6 |  |  |
| CCN(C)CCNC(=O)c1cn(CC)c(=O)c2cc3cccc(C)c3nc12 [Compound 90, N-[2-(N-ethylmethylamino)ethyl]-2-ethyl-6-methyl-1-oxo-1,2-dihydrobenzo[b][1,6]naphthyridine-4-carboxamide] |  |  | 6.4% | 3.5% |
| CN(C)CCNC(=O)c1cccc2cc3ccccc3nc12 [DACA (1), reference compound] |  |  | 2% | 1.7% |
